Consider 2 compounds from patent US20260000685A1, “PHARMACEUTICAL COMPOSITION FOR PREVENTING OR TREATING DEGENERATIVE BRAIN DISEASES, COMPRISING CANNABINOIDS AS ACTIVE INGREDIENT, AND USES THEREOF” (NEOCANNBIO CO., LTD., priority 2022, published 2026).

Molecules are shown by their SMILES.

The subject of test [1] is phosphorylated tau (p-Tau). The test can be described thus: Western blot of Tau/p-Tau in hippocampal tissues of animal model. It counts as in vivo, ICR mice. Conditions: day 19; compared to Aβ1-42 treated group; FIG. 16. How it is done:
(§1) To conduct Western blotting, tissues were homogenized in radioimmunoprecipitation assay buffer (Cell Signaling) to acquire tissue lysates. Tissue protein concentrations were determined using the Bio-Rad protein assay (Bio-Rad, Hercules, CA, USA), and Western blot analysis was conducted using 80-120 μg of protein. Next, the Western blotting samples prepared using the proteins were separated using 12% SDS-PAGE and transferred to a polyvinylidene fluoride membrane (PVDF) (Merck Millipore, Burlington, MA, USA; 0.4 μm). The PVDF was blocked with tris-buffered saline including 5% bovine serum albumin and Tween-20, and incubated with primary antibodies overnight at 4° C. After primary antibody incubation, the samples were incubated with HRP-conjugated secondary antibody (Sigma; 1:5000) for 1 hour at room temperature, and immunodetection was conducted using an enhanced chemiluminescence detection kit (GE Healthcare, Chicago, IL, USA).
Specifically, hippocampal tissues were acquired on day 19 from the animal models created in Example 7 above (PBS treated group, Aβ1-42 treated group, CBDA treated group, and THCA treated group), and Western blot analysis was conducted on the hippocampal tissues to evaluate the expression levels of Tau and phosphorylated Tau (p-Tau).
For orientation: A western blot detects proteins with antibodies after separation by electrophoresis.

The subject of test [2] is primary neuronal cells. The test can be described thus: Inhibition of Aβ1-42-induced neuron apoptosis (MTS cell viability). As to conditions: for cell survival rate level: different concentrations with Aβ1-42 (5 μM), 24 hours, compared to control treated with Aβ1-42 alone, FIG. 2; for neuron apoptosis inhibition efficacy: same concentration of CBDA, CBD, THCA and THC, Memantine as positive control, FIG. 3. It is filed as cell-based, ICR mice. How it is done:
Specifically, primary neuronal cells derived from ICR mice were seeded in 96-wells at 5×10^5 cells per well and cultured for 6 days. Afterwards, the six compounds of Example 1 above were treated at different concentrations and Aβ1-42 (5 μM) was treated to induce neuron apoptosis, and the cells were treated together for 24 hours. Afterwards, a MTS solution was added to the medium and incubated for 2 hours. Cytotoxicity (cell viability) was measured using a microplate spectrophotometer (Bio-Tek Power Wave XS, Winooski, VT, USA), and absorbance was measured at 490 nm.
Next, the neuron apoptosis inhibition efficacy for the same concentration of CBDA, CBD, THCA and THC was evaluated using the same method as above. Memantine, known as an Alzheimer's treatment, was used as a positive control group.

Test [3] deals with Alzheimer's animal model (Aβ1-42 treated mice). The test can be described thus: Novel object recognition test (NOR) in Aβ1-42 Alzheimer's animal model. It counts as in vivo, ICR mice. As to conditions: compared to mice treated with only Aβ1-42; FIG. 14. How it is done: Female ICR mice (8 weeks old) used in the experiment were purchased from Coretech (Pyeongtaek, Korea). Mice were housed in the animal care facility of the Korea Institute of Science and Technology (KIST) (temperature 22±2° C., humidity 40-60%, 12-hour light/dark cycle). Mice were housed in an environment with free access to food and water. All animal experiments were conducted in accordance with the protocol approval of the Animal Ethics Committee of our institution.
Next, to create an animal model, mice were randomly selected and divided into four groups as follows: PBS treated group (PBS+PBS), Aβ1-42 treated group (Aβ1-42 +PBS) (Alzheimer's animal model), CBDA treated group (Δβ1-42+CBDA (6.25 µM, 3 μL/mouse)), and THCA treated group (Δβ1-42+THCA (12.5 μM, 3 μL/mouse)).
After anesthetizing the isolated mice by intraperitoneal (i.p.) injection of avertin (250 mg/kg), the mice were fixed in a stereotaxic apparatus, and CBDA, THCA, Aβ1-42, or PBS (3 μl/15 min/mouse) were gradually delivered to the hippocampus using a Hamilton syringe (coordinates of bregma: mediolateral (ML)=1.30 mm, anteroposterior (AP)=−2.00 mm, dorsoventral=−2.20 mm).
First, the Novel Object Recognition Test (NOR) was conducted to examine a natural tendency of the experimental mice to explore novel stimuli. For this purpose, during the habituation session conducted 2 days before the test, the mice were allowed to explore the test environment consisting of an opaque custom-made Plexiglas box (35 cm×45 cm×25 cm) for 10 minutes. The sample object phase was conducted 24 hours later. Two identical white circular cylinders (sample objects) were placed on opposite edges of the test environment, and mice were given access to the objects for 10 minutes. After 4 hours (novel object stage), one of the sample objects in the test environment was replaced with a similarly sized novel object (colored miniature animal), and the mouse was allowed to contact this novel arrangement for 5 minutes. The time when the mouse's nose stayed <1 cm away from the object was considered the time the mouse explored the object, excluding the time when the mouse stood on the object. The identification rate was calculated as the time spent exploring the novel object relative to the time spent exploring the two objects.

Test [4] concerns p-TrkB (Tyrosine receptor kinase B). The test can be described thus: Western blot of p-TrkB in hippocampal tissues of animal model. It counts as in vivo, ICR mice. Conditions: day 19; compared to Aβ1-42 treated group; FIG. 17. How it is done: as §1
(§2) Specifically, hippocampal tissues were acquired on day 19 from the animal models created in Example 7 above (PBS treated group, Aβ1-42 treated group, CBDA treated group, and THCA treated group), and Western blot analysis was conducted on the hippocampal tissues to evaluate the expression levels of BDNF, p-CREB, and p-TrKB.

Test [5] has as its system phosphorylated tau (p-Tau). The test can be described thus: Western blotting of Tau/p-Tau in Aβ1-42-treated primary neuronal cells. It counts as cell-based, ICR mice. As to conditions: with Aβ1-42 (5 μM), 24 hours; compared to Aβ1-42 alone; FIG. 7. As to the method: as §1
Specifically, primary neuronal cells derived from ICR mice were cultured for 6 days, and then treated with CBDA, THCA, THC, or CBN compounds while treating with Aβ1-42 (5 μM), and treated together for 24 hours. Next, to confirm the expression levels of Tau and phosphorylated Tau (p-Tau) in the cells, Western blotting was conducted using the method disclosed in Example 4 above.

Test [6] relates to p-CREB (CAMP Response Element-Binding Protein). The test can be described thus: Western blot of p-CREB in hippocampal tissues of animal model. It is filed as in vivo, ICR mice. As to conditions: day 19; compared to Aβ1-42 treated group; FIG. 17. How it is done:
as §1, §2

For the compound `C=C(C)[C@@H]1CCC(C)=C[C@H]1c1c(O)cc(CCCCC)c(C(=O)O)c1O` [CBDA], in test [1], the “expression level of p-Tau in hippocampal tissues” value is “significantly reduced” and the “phosphorylation level of p-Tau in hippocampal tissues” value is recorded as “significantly reduced”. Further, in test [2], the “cell survival rate level” value is reported as “significantly increased” and the “neuron apoptosis inhibition efficacy” value is recorded as “better neuron apoptosis inhibition efficacy”. In test [3], the “identification rate (NOR)” value is on record as “significantly increased” and the “time investigating the novel object” value was “spent more time”. In test [4], the “expression level of p-TrKB in hippocampal tissues” value is recorded as “significantly increased”. For the same compound, in test [5], the “expression level of p-Tau” value is on record as “significantly reduced” and the “phosphorylation level of p-Tau” value is on record as “significantly reduced”. The “expression level of p-CREB in hippocampal tissues” value in test [6] is reported as “significantly increased”.

With `CCCCCc1cc2c(c(O)c1C(=O)O)[C@@H]1C=C(C)CC[C@H]1C(C)(C)O2` [THCA, (6aR, 10aR)-1-Hydroxy-6,6,9-trimethyl-3-pentyl-6a,7,8,10a-tetrahydro-6H-benzo[c]chromene-2-carboxylic acid], in test [1], the “expression level of p-Tau in hippocampal tissues” value is reported as “significantly reduced” and the “phosphorylation level of p-Tau in hippocampal tissues” value is reported as “significantly reduced”. Besides, in test [2], the “cell survival rate level” value was “significantly increased” and the “neuron apoptosis inhibition efficacy” value is on record as “better neuron apoptosis inhibition efficacy”. In addition, in test [3], the “identification rate (NOR)” value is listed as “significantly increased” and the “time investigating the novel object” value is “spent more time”. Further, the “expression level of p-TrKB in hippocampal tissues” value in test [4] is reported as “significantly increased”. In addition, in test [5], the “expression level of p-Tau” value is “significantly reduced” and the “phosphorylation level of p-Tau” value is given as “significantly reduced”. In test [6], the “expression level of p-CREB in hippocampal tissues” value is “significantly increased”.
